Measured values: patent US7964531B2, “3-phenoxy-4-pyridazinol derivatives and herbicidal composition containing the same” (Mitsui Chemicals Agro, Inc., priority 2001, dated 2011)

SMILES | melting point
CON=C(C)c1ccccc1Oc1nnc(Cl)cc1O [Compound No. 334, 1-{2-[(6-Chloro-4-hydroxy-3-pyridazinyl)oxy]phenyl}ethanone O-methyloxime] | 165 to 167 °C
Cc1cccc(C2CC2)c1Oc1nnc(Cl)cc1OC(=O)N(C(C)C)C(C)C | 103 to 105 °C
CC(=O)c1cccc(Oc2nnc(Cl)cc2O)c1 [Compound No. 422, 1-{3-[(6-Chloro-4-hydroxy-3-pyridazinyl)oxy]phenyl}ethanone] | 195 to 198 °C
CC=Cc1ccccc1Oc1nnc(Cl)cc1O [Compound No. 305, 6-Chloro-3-[2-(1-propenyl)phenoxy}-4-pyridazinol] | 204 to 206 °C
COc1ccc(Br)cc1Oc1nnc(Cl)cc1O [Compound No. 702, 3-(5-Bromo-2-methoxyphenoxy)-6-chloro-4-pyridazinol] | 135 to 137 °C
CCCCCCc1ccccc1Oc1nnc(Cl)cc1O [Compound No. 138, 6-Chloro-3-(2-hexylphenoxy)-4-pyridazinol] | 118 to 118.5 °C
Oc1cc(Cl)nnc1Oc1ccccc1C1CC1(F)F (centres unmarked) [Compound No. 264, 6-Chloro-3-[2-(2,2-difluorocyclopropyl)phenoxy]-4-pyridazinol] | 215 to 216 °C
Oc1cc(Cl)nnc1Oc1cccc2sccc12 [Compound No. 534, 3-(1-Benzothien-4-yloxy)-6-chloro-4-pyridazinol] | 181 to 183 °C
Oc1cc(Cl)nnc1Oc1ccccc1C1(C2CC2)CC1 [Compound No. 151, 6-Chloro-3-{2-[1-(cyclopropyl)cyclopropyl]phenoxy}-4-pyridazinol] | 180 to 182 °C
CN(C)c1ccc(C=O)c(Oc2nnc(Cl)cc2O)c1 [Compound No. 692, 2-[(6-Chloro-4-hydroxy-3-pyridazinyl)oxy]-4-(dimethylamino)benzaldehyde] | 124 to 127 °C
Cc1c(Oc2nnc(Cl)cc2O)cccc1[N+](=O)[O-] [Compound No. 458, 6-Chloro-3-(2-methyl-3-nitrophenoxy)-4-pyridazinol] | 241 to 244 °C
CC(C)(C)c1ccccc1Oc1nnc(Cl)c([Si](C)(C)C)c1O | 160 to 163 °C
Oc1cc(Cl)nnc1Oc1ccccc1CC1CC1 [Compound No. 311, 6-Chloro-3-[2-(cyclopropylmethyl)phenoxy]-4-pyridazinol] | 165 to 168 °C
CC(C)(C)c1ccc(C(C)(C)C)c(Oc2nnc(Cl)cc2O)c1 [Compound No. 653, 6-Chloro-3-(2,5-di-tert-butylphenoxy)-4-pyridazinol] | 249 to 258 °C
CCN(CC)C(=O)Oc1cc(Cl)nnc1Oc1c(C)cccc1C1CC1 | 119 to 121 °C
N#Cc1cccc(Oc2nnc(Cl)cc2O)c1 [Compound No. 420, 3-[(6-Chloro-4-hydroxy-3-pyridazinyl)oxy]benzonitrile] | 226 to 229 °C
COc1cccc(Oc2nnc(Cl)cc2O)c1C [Compound No. 459, 6-Chloro-3-(3-methoxy-2-methylphenoxy)-4-pyridazinol] | 224 to 237 °C
Cc1ccccc1Oc1n[n+]([O-])c(Cl)cc1O [Compound No. 129, 6-Chloro-3-(2-methylphenoxy)-4-pyridazinol 1-oxide] | 194 to 196 °C
Oc1cc(Cl)nnc1Oc1cccc(F)c1F [Compound No. 437, 6-Chloro-3-(2,3-difluorophenoxy)-4-pyridazinol] | 188 to 193 °C
CCc1cccc(Br)c1Oc1nnc(Cl)cc1O [Compound No. 759, 3-(2-Bromo-6-ethylphenoxy)-6-chloro-4-pyridazinol] | 215 to 217 °C
CC#Cc1ccccc1Oc1nnc(Cl)cc1O [Compound No. 309, 6-Chloro-3-[2-(1-propynyl)phenoxy]-4-pyridazinol] | 182 to 184 °C
N#CC1(c2ccccc2Oc2nnc(Cl)cc2O)CCC1 [Compound No. 287, 1-{2-[(6-Chloro-4-hydroxy-3-pyridazinyl)oxy]phenyl}cyclobutanecarbonitrile] | 213 to 215 °C

Results, then the compound that gave them:

melting point | SMILES
102 to 104 °C | Cc1ccc(S(=O)(=O)Oc2cc(Cl)nnc2Oc2ccccc2C)cc1 [Compound No. 2220, 6-Chloro-3-(2-methylphenoxy)-4-pyridazinyl 4-methylbenzenesulfonate]
133 to 134 °C | Cc1ccccc1C(=O)Oc1cc(Cl)nnc1Oc1cccc2ccccc12 [Compound No. 1461, 6-Chloro-3-(1-naphthyloxy)-4-pyridazinyl 2-methylbenzoate]
249 to 253 °C | CC(C)c1cc(Oc2nnc(Cl)cc2O)cc(C(C)C)c1 [Compound No. 1007, 6-Chloro-3-(3,5-diisopropylphenoxy)-4-pyridazinol]
71 to 74 °C | Cc1cccc(C2CC2)c1Oc1nnc(Cl)cc1OC(=O)CC(C)C [Compound No. 1184, 6-Chloro-3-(2-cyclopropyl-6-methylphenoxy)-4-pyridazinyl 3-methylbutanoate]
80 to 81 °C | Cc1ccc(S(=O)(=O)Oc2cc(Cl)nnc2Oc2ccc(C)cc2C)cc1 [Compound No. 2247, 6-Chloro-3-(2,4-dimethylphenoxy)-4-pyridazinyl 4-methylbenzenesulfonate]
95 to 97 °C | Cc1ccc(C(C)C)c(Oc2nnc(Cl)cc2OC(=O)c2ccccc2C)c1 [Compound No. 1459, 6-Chloro-3-(2-isopropyl-5-methylphenoxy)-4-pyridazinyl 2-methylbenzoate]
232 to 253 °C (dec.) | CC(C)c1cccc(Br)c1Oc1nnc(Cl)cc1O [Compound No. 760, 3-(2-Bromo-6-isopropylphenoxy)-6-chloro-4-pyridazinol]
123 to 126 °C | COCc1c(Cl)nnc(Oc2ccccc2C)c1O [Compound No. 2378, 6-Chloro-5-(methoxymethyl)-3-(2-methylphenoxy)-4-pyridazinol]
250 to 252 °C | Cc1cccc(I)c1Oc1nnc(Cl)cc1O [Compound No. 780, 6-Chloro-3-(2-iodo-6-methylphenoxy)-4-pyridazinol]
263 to 268 °C | Cc1ccc(Br)c(Oc2nnc(Cl)cc2O)c1C [Compound No. 1058, 3-(6-Bromo-2,3-dimethylphenoxy)-6-chloro-4-pyridazinol]
77.5 to 78 °C | Cc1ccc(C(=O)Oc2cc(Cl)nnc2Oc2c(C)cccc2C2CC2)cc1 [Compound No. 1566, 6-Chloro-3-(2-cyclopropyl-6-methylphenoxy)-4-pyridazinyl 4-methylbenzoate]
238 to 240 °C (dec.) | Cc1c(C)c(C)c(Oc2nnc(Cl)cc2O)c(C)c1C [Compound No. 2614, 6-Chloro-3-(2,3,4,5,6-pentamethylphenoxy)-4-pyridazinol]
254 to 256 °C | Cc1cc(C)c(Oc2nnc(Cl)cc2O)c(Br)c1 [Compound No. 1119, 3-(2-Bromo-4,6-dimethylphenoxy)-6-chloro-4-pyridazinol]
70.5 to 71.5 °C | CCCS(=O)(=O)Oc1cc(Cl)nnc1Oc1c(C)cccc1C1CC1 [Compound No. 2051, 6-Chloro-3-(2-cyclopropyl-6-methylphenoxy)-4-pyridazinyl 1-propanesulfonate]
240 to 247 °C | CC(C)(C)c1cccc(Br)c1Oc1nnc(Cl)cc1O [Compound No. 761, 3-(2-Bromo-6-tert-butylphenoxy)-6-chloro-4-pyridazinol]
195 to 197 °C | C=Cc1cc(O)c(Oc2ccccc2C)nn1 [Compound No. 2436, 3-(2-Methylphenoxy)-6-vinyl-4-pyridazinol]
174 to 179 °C | CCOc1cccc(C2CC2)c1Oc1nnc(Cl)cc1O [Compound No. 965, 6-Chloro-3-(2-cyclopropyl-6-ethoxyphenoxy)-4-pyridazinol]
56 to 57 °C | Cc1ccc(S(=O)(=O)Oc2cc(Cl)nnc2Oc2cccc(C(C)(C)C)c2)cc1 [Compound No. 2235, 3-(3-tert-Butylphenoxy)-6-chloro-4-pyridazinyl 4-methylbenzenesulfonate]
242 to 244 °C | CCc1cccc(I)c1Oc1nnc(Cl)cc1O [Compound No. 781, 6-Chloro-3-(2-ethyl-6-iodophenoxy)-4-pyridazinol]
231 to 234 °C | COc1cccc(Oc2nnc(Cl)cc2O)c1I [Compound No. 2551, 6-Chloro-3-(2-iodo-3-methoxyphenoxy)-4-pyridazinol]
181 to 185 °C | CCc1cccc(CC)c1Oc1nnc(Cl)cc1O [Compound No. 846, 6-Chloro-3-(2,6-diethylphenoxy)-4-pyridazinol]
157 to 159 °C | Cc1cccc(C2CC2)c1Oc1nnc(Cl)cc1OC(=O)n1c2ccccc2c2ccccc21 [Compound No. 3714, 6-Chloro-3-(2-cyclopropyl-6-methylphenoxy)-4-pyridazinyl 9H-carbazole-9-carboxylate]
242 to 245 °C | CC(C)c1cccc(C2CC2)c1Oc1nnc(Cl)cc1O [Compound No. 896, 6-Chloro-3-(2-cyclopropyl-6-isopropylphenoxy)-4-pyridazinol]
236 to 237 °C | Cc1ccccc1Oc1nnc(-c2ccccc2)cc1O [Compound No. 2464, 3-(2-Methylphenoxy)-6-phenyl-4-pyridazinol]
188 to 200 °C | Cc1ccc2c(c1Oc1nnc(Cl)cc1O)COC2 [Compound No. 2592, 6-Chloro-3-[(5-methyl-1,3-dihydro-2-benzofuran-4-yl)oxy]-4-pyridazinol]
72 to 74 °C | Cc1cccc(C2CC2)c1Oc1nnc(Cl)cc1OC(=O)OCC(C)C [Compound No. 1770, 6-Chloro-3-(2-cyclopropyl-6-methylphenoxy)-4-pyridazinyl isobutyl carbonate]
117 to 119 °C | Cc1cc(C)cc(C(=O)Oc2cc(Cl)nnc2Oc2c(C)cccc2C2CC2)c1 [Compound No. 3243, 6-Chloro-3-(2-cyclopropyl-6-methylphenoxy)-4-pyridazinyl 3,5-dimethylbenzoate]
234 to 235 °C | Cc1c(Br)ccc(C2CC2)c1Oc1nnc(Cl)cc1O [Compound No. 2587, 3-(3-Bromo-6-cyclopropyl-2-methylphenoxy)-6-chloro-4-pyridazinol]
